ChEMBL document CHEMBL1145293, “Synthesis and SAR of GlyT1 inhibitors derived from a series of N-((4-(morpholine-4-carbonyl)-1-(propylsulfonyl)piperidin-4-yl)methyl)benzamides” (Bioorg Med Chem Lett, 2006)
Values after ≈ are worked out from the molar mass of the structure shown. Each block holds one molecule with its values, some of them ahead of it.

Tests used:
[1] = target: T1, Sodium- and chloride-dependent glycine transporter 2 (Homo sapiens, UniProt Q9Y345); assay: Inhibition of human GlyT2
T1 sequence (Q9Y345 whole entry): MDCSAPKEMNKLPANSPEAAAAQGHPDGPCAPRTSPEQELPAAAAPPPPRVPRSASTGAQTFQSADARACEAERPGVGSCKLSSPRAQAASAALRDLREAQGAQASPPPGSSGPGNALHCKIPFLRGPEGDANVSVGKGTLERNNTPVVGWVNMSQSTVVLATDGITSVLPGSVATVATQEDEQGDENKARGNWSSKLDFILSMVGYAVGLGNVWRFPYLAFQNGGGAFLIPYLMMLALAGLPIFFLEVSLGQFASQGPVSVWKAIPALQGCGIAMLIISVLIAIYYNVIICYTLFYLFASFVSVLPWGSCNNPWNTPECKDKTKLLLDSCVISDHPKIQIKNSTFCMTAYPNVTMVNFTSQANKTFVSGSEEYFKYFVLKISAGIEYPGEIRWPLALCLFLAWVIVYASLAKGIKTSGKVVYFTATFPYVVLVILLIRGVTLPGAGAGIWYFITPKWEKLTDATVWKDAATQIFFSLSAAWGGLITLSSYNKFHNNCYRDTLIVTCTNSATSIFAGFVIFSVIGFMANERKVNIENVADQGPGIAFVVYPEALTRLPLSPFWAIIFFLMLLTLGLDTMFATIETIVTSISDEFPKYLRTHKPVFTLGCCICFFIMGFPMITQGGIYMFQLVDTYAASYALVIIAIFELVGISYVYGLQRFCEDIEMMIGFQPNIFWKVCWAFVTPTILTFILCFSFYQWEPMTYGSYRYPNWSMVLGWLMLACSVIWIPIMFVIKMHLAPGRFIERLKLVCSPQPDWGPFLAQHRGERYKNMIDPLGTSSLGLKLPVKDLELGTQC

[2] = target: T2, Sodium- and chloride-dependent taurine transporter (Homo sapiens, UniProt P31641); assay: Inhibition of human TauT
T2 sequence (P31641 whole entry): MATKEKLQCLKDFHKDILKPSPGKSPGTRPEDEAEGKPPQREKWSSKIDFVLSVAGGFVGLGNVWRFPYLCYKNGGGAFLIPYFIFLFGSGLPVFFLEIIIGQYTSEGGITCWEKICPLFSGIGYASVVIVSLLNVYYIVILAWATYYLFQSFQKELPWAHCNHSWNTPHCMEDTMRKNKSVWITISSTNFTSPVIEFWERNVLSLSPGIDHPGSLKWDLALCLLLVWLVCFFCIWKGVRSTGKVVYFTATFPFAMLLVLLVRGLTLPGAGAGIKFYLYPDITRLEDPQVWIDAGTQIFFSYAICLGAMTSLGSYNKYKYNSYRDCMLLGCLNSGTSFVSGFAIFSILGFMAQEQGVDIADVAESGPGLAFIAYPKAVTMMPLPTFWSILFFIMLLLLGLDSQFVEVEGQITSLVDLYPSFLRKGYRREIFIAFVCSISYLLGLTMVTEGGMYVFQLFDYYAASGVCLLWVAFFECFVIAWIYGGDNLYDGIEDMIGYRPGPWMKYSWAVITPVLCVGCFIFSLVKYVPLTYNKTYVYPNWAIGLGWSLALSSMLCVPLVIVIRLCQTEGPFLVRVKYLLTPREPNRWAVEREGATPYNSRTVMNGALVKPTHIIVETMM

[3] = target: T3, Sodium- and chloride-dependent glycine transporter 1 (Homo sapiens, UniProt P48067); assay: Inhibition of human GlyT1
T3 sequence (P48067 whole entry): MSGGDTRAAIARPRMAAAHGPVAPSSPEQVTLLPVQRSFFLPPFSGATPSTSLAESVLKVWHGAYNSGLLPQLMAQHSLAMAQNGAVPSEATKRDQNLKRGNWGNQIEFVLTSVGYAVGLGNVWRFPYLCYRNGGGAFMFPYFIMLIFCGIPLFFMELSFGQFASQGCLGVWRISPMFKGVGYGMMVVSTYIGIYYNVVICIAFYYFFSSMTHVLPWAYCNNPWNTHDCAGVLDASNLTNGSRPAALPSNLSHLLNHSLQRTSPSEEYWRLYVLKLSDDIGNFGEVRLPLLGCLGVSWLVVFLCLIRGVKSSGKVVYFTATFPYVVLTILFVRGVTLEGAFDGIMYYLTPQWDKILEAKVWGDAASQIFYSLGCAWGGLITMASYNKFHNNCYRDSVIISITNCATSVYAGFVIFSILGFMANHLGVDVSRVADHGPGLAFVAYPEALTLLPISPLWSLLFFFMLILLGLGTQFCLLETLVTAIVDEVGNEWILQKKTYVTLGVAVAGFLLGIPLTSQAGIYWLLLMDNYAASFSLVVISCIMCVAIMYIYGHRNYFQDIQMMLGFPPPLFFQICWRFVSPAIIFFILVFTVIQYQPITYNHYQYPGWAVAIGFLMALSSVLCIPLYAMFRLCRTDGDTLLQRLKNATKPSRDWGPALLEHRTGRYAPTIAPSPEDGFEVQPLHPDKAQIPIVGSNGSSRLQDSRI

Caco-2 [4] = assay: Ratio of permeability from basolateral to apical over apical to basolateral side of Caco-2 cell expressing human p-glycoprotein; format: ADME, cell-based
[5] = Half life in rat; format: ADME, organism-based; conditions: in vivo
Cytochrome P450 2D6 = Cytochrome P450 2D6 (Homo sapiens, UniProt P10635); assay: Inhibition of CYP2D6; format: ADME
Cytochrome P450 2D6, sequence (P10635 whole entry): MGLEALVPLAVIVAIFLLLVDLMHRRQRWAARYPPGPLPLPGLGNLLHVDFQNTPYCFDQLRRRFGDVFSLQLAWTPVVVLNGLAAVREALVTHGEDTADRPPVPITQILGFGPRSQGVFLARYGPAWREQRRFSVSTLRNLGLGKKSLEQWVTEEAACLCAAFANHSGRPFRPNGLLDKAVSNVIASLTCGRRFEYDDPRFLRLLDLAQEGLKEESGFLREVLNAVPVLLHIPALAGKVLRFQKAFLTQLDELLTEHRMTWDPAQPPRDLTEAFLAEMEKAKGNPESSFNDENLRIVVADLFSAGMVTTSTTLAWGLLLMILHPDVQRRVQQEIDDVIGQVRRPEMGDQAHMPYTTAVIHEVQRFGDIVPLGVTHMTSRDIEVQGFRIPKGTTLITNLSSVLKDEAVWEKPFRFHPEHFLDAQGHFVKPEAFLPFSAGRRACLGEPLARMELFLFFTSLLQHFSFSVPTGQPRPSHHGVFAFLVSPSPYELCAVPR

[6] = Clearance in rat; format: ADME, organism-based; conditions: in vivo
[7] = Partition coefficient, log P of the compound; format: physicochemical; conditions: octanol/water
Cytochrome P450 2C9 = Cytochrome P450 2C9 (Homo sapiens, UniProt P11712); assay: Inhibition of CYP2C9; format: ADME
Cytochrome P450 2C9, sequence (P11712 whole entry): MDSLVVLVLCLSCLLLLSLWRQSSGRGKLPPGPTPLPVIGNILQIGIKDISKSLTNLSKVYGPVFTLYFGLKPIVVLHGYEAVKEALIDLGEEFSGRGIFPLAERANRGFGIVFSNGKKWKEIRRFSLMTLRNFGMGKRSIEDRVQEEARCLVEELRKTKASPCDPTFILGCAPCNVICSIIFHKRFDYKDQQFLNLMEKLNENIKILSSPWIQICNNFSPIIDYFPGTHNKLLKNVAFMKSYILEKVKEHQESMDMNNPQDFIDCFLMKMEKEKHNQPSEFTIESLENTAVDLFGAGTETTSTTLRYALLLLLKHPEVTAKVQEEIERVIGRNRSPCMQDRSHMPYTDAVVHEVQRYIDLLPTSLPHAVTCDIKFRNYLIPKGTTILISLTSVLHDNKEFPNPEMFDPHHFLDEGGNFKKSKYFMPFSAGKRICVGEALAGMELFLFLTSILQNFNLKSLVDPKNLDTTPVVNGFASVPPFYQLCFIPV

[8] = Apparent permeability in Caco-2 cells; format: ADME, cell-based; conditions: human
Caco-2 [9] = assay: Ratio of permeability from basolateral to apical over apical to basolateral side of Caco-2 cell expressing mouse p-glycoprotein; format: ADME, cell-based; conditions: human
[10] = Aqueous solubility of the compound; format: physicochemical
Cytochrome P450 3A4 = Cytochrome P450 3A4 (Homo sapiens, UniProt P08684); assay: Inhibition of CYP3A4; format: ADME
Cytochrome P450 3A4, sequence (P08684 whole entry): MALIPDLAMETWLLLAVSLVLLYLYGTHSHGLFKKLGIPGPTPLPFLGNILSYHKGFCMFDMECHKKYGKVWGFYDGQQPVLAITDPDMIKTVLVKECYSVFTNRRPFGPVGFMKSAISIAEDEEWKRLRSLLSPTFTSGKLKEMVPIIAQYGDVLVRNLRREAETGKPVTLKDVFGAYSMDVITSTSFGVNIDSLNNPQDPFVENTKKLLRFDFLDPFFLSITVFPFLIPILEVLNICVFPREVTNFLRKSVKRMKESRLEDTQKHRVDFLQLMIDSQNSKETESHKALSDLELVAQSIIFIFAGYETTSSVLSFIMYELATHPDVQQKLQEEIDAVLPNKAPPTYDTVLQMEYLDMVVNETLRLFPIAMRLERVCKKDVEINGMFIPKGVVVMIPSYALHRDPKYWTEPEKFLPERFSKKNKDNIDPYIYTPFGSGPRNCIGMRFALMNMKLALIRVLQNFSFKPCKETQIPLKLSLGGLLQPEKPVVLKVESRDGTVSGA

SMILES: CCCS(=O)(=O)N1CCC(CNC(=O)C2CC2)(C(=O)N2CCOCC2)CC1
Ratio (Caco-2 [4]): 10.6
IC50 [1]: > 30 µM
half-life [5]: 18 min
Activity (Cytochrome P450 2D6): Not Active
clearance [6]: 18 mL/min/kg
logP [7]: < 1.4
Activity (Cytochrome P450 2C9): Not Active
Papp [8]: > 22 ×10⁻⁶ cm/s
IC50 [2]: > 30 µM
Ratio (Caco-2 [9]): 8.9
IC50 [3]: > 5 µM
solubility [10]: 10000 µg/mL (≈ 24.9 mM)
Activity (Cytochrome P450 3A4): Not Active

SMILES: CCCS(=O)(=O)N1CCC(CNC(=O)c2ccccc2)(C(=O)N2CCOCC2)CC1
Ratio (Caco-2 [4]): 10.6
IC50 [1]: > 30 µM
half-life [5]: 18 min
Activity (Cytochrome P450 2D6): Not Active
clearance [6]: 18 mL/min/kg
logP [7]: < 1.4
Activity (Cytochrome P450 2C9): Not Active
Papp [8]: > 22 ×10⁻⁶ cm/s
IC50 [2]: > 30 µM
Ratio (Caco-2 [9]): 8.9
IC50 [3]: 0.264 µM
solubility [10]: 10000 µg/mL (≈ 22.9 mM)
Activity (Cytochrome P450 3A4): Not Active

SMILES: CCCS(=O)(=O)N1CCC(CNC(=O)c2ccccc2OC(F)(F)F)(C(=O)N2CCOCC2)CC1
Ratio (Caco-2 [4]): 10.6
IC50 [1]: > 30 µM
half-life [5]: 18 min
Activity (Cytochrome P450 2D6): Not Active
clearance [6]: 18 mL/min/kg
logP [7]: < 1.4
Activity (Cytochrome P450 2C9): Not Active
Papp [8]: > 22 ×10⁻⁶ cm/s
IC50 [2]: > 30 µM
Ratio (Caco-2 [9]): 8.9
IC50 [3]: 0.0884 µM
solubility [10]: 10000 µg/mL (≈ 19.2 mM)
Activity (Cytochrome P450 3A4): Not Active

SMILES: CCCS(=O)(=O)N1CCC(CNC(=O)c2c(F)cccc2F)(C(=O)N2CCOCC2)CC1
Ratio (Caco-2 [4]): 10.6
IC50 [1]: > 30 µM
half-life [5]: 18 min
Activity (Cytochrome P450 2D6): Not Active
clearance [6]: 18 mL/min/kg
logP [7]: < 1.4
Activity (Cytochrome P450 2C9): Not Active
Papp [8]: > 22 ×10⁻⁶ cm/s
IC50 [2]: > 30 µM
Ratio (Caco-2 [9]): 8.9
IC50 [3]: 0.131 µM
solubility [10]: 10000 µg/mL (≈ 21.1 mM)
Activity (Cytochrome P450 3A4): Not Active

SMILES: CCCS(=O)(=O)N1CCC(C(=O)N2CCOCC2)([C@H](C)NC(=O)c2ccc(Cl)cc2Cl)CC1
IC50 [3]: > 5 µM

SMILES: CCCS(=O)(=O)N1CCC(CNC(=O)c2ccc(C(F)(F)F)cc2F)(C(=O)N2CCOCC2)CC1
Ratio (Caco-2 [4]): 10.6
IC50 [1]: > 30 µM
half-life [5]: 18 min
Activity (Cytochrome P450 2D6): Not Active
clearance [6]: 18 mL/min/kg
logP [7]: < 1.4
Activity (Cytochrome P450 2C9): Not Active
Papp [8]: > 22 ×10⁻⁶ cm/s
IC50 [2]: > 30 µM
Ratio (Caco-2 [9]): 8.9
IC50 [3]: 0.0428 µM
solubility [10]: 10000 µg/mL (≈ 19.1 mM)
Activity (Cytochrome P450 3A4): Not Active

SMILES: CCCS(=O)(=O)N1CCC(CNC(=O)c2ccc(F)cc2C(F)(F)F)(C(=O)N2CCOCC2)CC1
Ratio (Caco-2 [4]): 10.6
IC50 [1]: > 30 µM
half-life [5]: 18 min
Activity (Cytochrome P450 2D6): Not Active
clearance [6]: 18 mL/min/kg
logP [7]: < 1.4
Activity (Cytochrome P450 2C9): Not Active
Papp [8]: > 22 ×10⁻⁶ cm/s
IC50 [2]: > 30 µM
Ratio (Caco-2 [9]): 8.9
IC50 [3]: 0.0678 µM
solubility [10]: 10000 µg/mL (≈ 19.1 mM)
Activity (Cytochrome P450 3A4): Not Active

SMILES: CCCS(=O)(=O)N1CCC(CNC(=O)CC)(C(=O)N2CCOCC2)CC1
Ratio (Caco-2 [4]): 10.6
IC50 [1]: > 30 µM
half-life [5]: 18 min
Activity (Cytochrome P450 2D6): Not Active
clearance [6]: 18 mL/min/kg
logP [7]: < 1.4
Activity (Cytochrome P450 2C9): Not Active
Papp [8]: > 22 ×10⁻⁶ cm/s
IC50 [2]: > 30 µM
Ratio (Caco-2 [9]): 8.9
IC50 [3]: > 5 µM
solubility [10]: 10000 µg/mL (≈ 25.7 mM)
Activity (Cytochrome P450 3A4): Not Active

Continued, values first:

IC50 [1]: > 30 µM
IC50 [2]: > 30 µM
IC50 [3]: 0.472 µM
SMILES: CCCS(=O)(=O)N1CCC(CNC(=O)c2ccc(Cl)cc2Cl)(C(=O)C2CC2)CC1

IC50 [1]: > 30 µM
IC50 [2]: > 30 µM
IC50 [3]: 0.517 µM
SMILES: CCCS(=O)(=O)N1CCC(CNC(=O)c2ccc(Cl)cc2Cl)(C(=O)NCC)CC1

IC50 [1]: > 30 µM
IC50 [2]: > 30 µM
IC50 [3]: 0.544 µM
SMILES: CCCS(=O)(=O)N1CCC(CNC(=O)c2ccc(Cl)cc2Cl)(C(=O)N2CCC(N(C)C)C2)CC1 (centres undefined)

IC50 [1]: > 30 µM
IC50 [2]: > 30 µM
IC50 [3]: 0.109 µM
SMILES: CCCS(=O)(=O)N1CCC(CNC(=O)c2ccc(Cl)cc2Cl)(C(=O)N2CC(N)C2)CC1

IC50 [1]: > 30 µM
IC50 [2]: > 30 µM
IC50 [3]: 0.069 µM
SMILES: CCCS(=O)(=O)N1CCC(CNC(=O)c2ccc(Cl)cc2Cl)(C(=O)NCC2(C)COC2)CC1

IC50 [3]: > 5 µM
SMILES: CCCS(=O)(=O)N1CCC(C(=O)N2CCOCC2)([C@@H](C)NC(=O)c2ccc(Cl)cc2Cl)CC1

IC50 [1]: > 30 µM
IC50 [2]: > 30 µM
IC50 [3]: 0.181 µM
SMILES: CCCS(=O)(=O)N1CCC(CNC(=O)c2ccc(Cl)cc2Cl)(C(=O)N(C)C)CC1

IC50 [1]: > 30 µM
IC50 [2]: > 30 µM
IC50 [3]: > 5 µM
SMILES: CCCS(=O)(=O)N1CCC(CNC(=O)c2ccc(Cl)cc2Cl)(C(=O)N2CCN(C)CC2)CC1
